Measurements: a melting point compilation (Tetko et al.; mined from patent text by program, amines drawn as free bases though some values may be those of a salt)

| melting point | Compound |
| --- | --- |
| 140 to 142 °C | CC(C)(CCC(F)(F)C(F)(F)C(F)(F)C(F)(F)C(F)(F)C(F)(F)C(F)(F)C(F)(F)F)OC(=O)N1CCC(C(=O)O)CC1 |
| 179 °C | COc1cc(Nc2nccc(-c3ccc(Br)cc3)n2)cc(OC)c1OC |
| 149 to 150 °C | O=C1Oc2ccc(Br)cc2C1c1ccc(Cl)cc1Cl (centres undefined) |
| 110 to 112 °C | O=C1CCOc2c1ccc(O)c2CCCc1ccccc1 |
| 220 to 223 °C | COC(=O)c1ccc2c(c1)C1(O)C(=O)c3ccccc3C1(O)O2 (centres undefined) |
| 151 °C | Cc1cc(-c2cc(C(F)(F)F)n3ncc(I)c3n2)ccc1Cl |
| 72 to 73 °C | CCCCc1ccc(NC=O)c([N+](=O)[O-])c1 |
| 170 to 171 °C | CCOC(=O)c1nnc2ccc(NC(C)C)cc2c1O |
| 102 to 104 °C | COc1nc2ccccn2c(=O)c1-c1ccc(NC2CCN(C(=O)OC(C)(C)C)C2)cc1 (centres undefined) |
| 235 to 238 °C | C[C@H](CN1CC(C#N)C1)NC(=O)c1c[nH]c2ncc(-c3nn(C)c4cc(Cl)ccc34)nc12 |
| 125 to 132 °C | CC(C(=O)O)c1ccc(C=C2CCCC2O)cc1 (centres undefined) |
| 140 to 143 °C | O=C(O)CCC(Cc1ccccc1Cl)(C(=O)C=Cc1c(Cl)cccc1Cl)c1ccccc1 (centres undefined) |
| 116 to 118 °C | CC(=O)CC(=O)NCCNC(=O)OCc1ccccc1 |
| 69 °C | C[C@@H]1O[C@@]1(Cn1cncn1)c1cc(F)ccc1F |
| 136 to 138 °C | CCOP(=O)(OCC)c1cc2c(c(C)c1-c1c(OC)ccc3ccccc13)COC2 |
| 38 to 42 °C | Cc1ccc(Cc2cnc(Cl)nc2OC(C)C)cn1 |
| 137 °C | CN1CCN(c2ncc(-c3ccc(Cl)cc3Cl)c(N)n2)CC1 |
| 110 to 114 °C | CC(Cc1c[nH]c2ccccc12)(NC(=O)OC1C2CC3CC(C2)CC1C3)C(=O)NC(CNC(=O)CCC(=O)O)Cc1ccccc1 (centres undefined) |
| 193 °C | OP(O)C(NC(c1ccccc1)c1ccccc1)c1ccco1 (centres undefined) |
| 128 to 129 °C | CC(C)(C)OC(=O)NC(Cc1cc2ccccc2s1)C(=O)O (centres undefined) |
| 96.7 °C | O=Cc1cc(C(=O)c2ccccc2)ccc1[N+](=O)[O-] |
| 168 to 170 °C | COC(=O)c1c(C(C)C)nc2c(c1-c1ccc(F)cc1)CCCN2 |
| 97 to 100 °C | CCC(C)C(Cl)C(=O)Oc1ccc(C(=O)O)cc1 (centres undefined) |
| 169 to 170 °C | Fc1ccc2c(c1)C(OCC1CC1)(C(F)F)c1cc(Cl)cnc1N2 (centres undefined) |
| 105 to 108 °C | CC(C)(C)[Si](C)(C)Oc1ccc(NC(=O)CN2CCC(O)(Cc3ccccc3)CC2)cc1 |

| melting point | Compound |
| --- | --- |
| 120 to 125 °C | COc1cccc(CCC(=O)c2c[nH]cn2)c1OC |
| 60 to 63 °C | Clc1ccc2c(c1)CCC(c1cccnc1)O2 (centres undefined) |
| 209 °C | CCOc1ccc2c(c1)n(C1CCOCC1)c(=O)n2Cc1ccc(C(=O)NC(C)(C)C)cc1OC |
| 74 to 77 °C | CC(C(=O)O)c1ccc([N+](=O)[O-])c(F)c1 (centres undefined) |
| 102 °C | COC(=O)CCCc1cc2nc(Cl)ccc2n1S(=O)(=O)c1cc(OC)ccc1OC |
| 107 to 108 °C | CCOC(=O)c1sc(SC(C)C)c2c1CCC(Br)C2=O (centres undefined) |
| 148 to 150 °C | CC(C)(O)c1cc(C(C)(C)O)cc(C(C)(C)O)c1 |
| 189 to 192 °C | O=c1nc(NCCCOc2cc(CN3CCCCC3)ccn2)c2ccccc2[nH]1 |
| 150 to 152 °C | CCC(C)NC(Nc1cc(Cl)cc(Cl)c1)=C(C#N)S(=O)(=O)c1ccc(Cl)cc1 (centres undefined) |
| 133 °C | CCCCCCCCSc1nc(Nc2cc(C)c(O)c(C(C)(C)C)c2)nc(NC2CC(C)(C)NC(C)(C)C2)n1 |
| 197 °C | CC12CCC3c4ccc(C(=O)O)cc4CCC3C1CCC2C(=O)CCc1ccc(O)cc1 (centres undefined) |
| 160 to 168 °C | CNC(=O)c1ccccc1Nc1nc(Nc2ccc3c(c2)CCC(F)(F)CC3)ncc1Cl |
| 118 to 121 °C | CCOC(=O)c1cc([N+](=O)[O-])ccc1NC(=O)OC(C)(C)C |
| 155 °C | O=C1c2ccccc2C(O)N1CCCN1CCN(c2ccc(F)cc2)CC1 (centres undefined) |
| 221 to 222 °C | COC(=O)c1[nH]c2c(C)ccc(C)c2c1NC(C)=O |
| 65 to 70 °C | Oc1cc2c(cc1CCCOc1ccccc1)OC(CCc1ccccc1)C2 (centres undefined) |
| 140 to 141 °C | CC(C)(C)c1cc(OCCCCc2nnn[nH]2)cc(C(C)(C)C)c1 |
| 100 to 105 °C | CC(C)Cn1c(=O)n(C)c(=O)c2c(SCCCO)c(C(O)c3cccc4ccccc34)sc21 (centres undefined) |
| 228 to 233 °C | Nc1ccn2nc(-c3cccnc3)nc2c1 |
| 112 to 114 °C | NC(=O)CCCCCCCCCCn1nnnc1S |
| 163 to 165 °C | CN(C)C(=O)Cc1ccc(CC(=O)O)cc1 |
| 198 to 200 °C | O=[N+]([O-])C=C(NCCCCc1nc[nH]c1Br)NCCCCc1nc[nH]c1Br |
| 240 to 242 °C | Oc1ccc(-c2ncc3ncc(-c4cccs4)cc3n2)cc1 |
| 61 to 63 °C | CCCOc1nc2sccc2c(=N)n1CCC |
| 222 to 226 °C | CN1CCOC1=C(C#N)C=C1Nc2ccccc2C1=O |

| melting point | Compound |
| --- | --- |
| 207 to 209 °C | C#CCOc1nc(-n2nc3ccc(Cl)cn3c2=O)c(F)cc1C#N |
| 192 to 196 °C | CNC(=S)NS(=O)(=O)c1cc(CCNC(=O)c2cc(Cl)ccc2OC)ccc1-c1ccccc1 |
| 65 °C | CCCCCC1=CCC(c2cc(F)c(C(=O)O)c(F)c2)C=C1 (centres undefined) |
| 77.4 to 79.8 °C | COc1ccc(C2=CCCC(=O)O2)cc1 |
| 79 to 82 °C | COc1ccc(N2CCN(C(=O)NCCN(C)C)CC2)cc1 |
| 164 °C | CCO[C@@H]1c2ccc3c(nc(C)n3C)c2O[C@H](c2ccccc2)[C@H]1OC(=O)C(C)(C)C |
| 95 °C | CCOCC1(F)CCN([C@@H](c2ccc(C(F)(F)F)cc2CN(Cc2cc(C(F)(F)F)cc(C(F)(F)F)c2)c2nnn(C)n2)C(C)C)CC1 |
| 117 °C | CCC1CC(=O)N(Cc2ccc(NC(=O)C(C)(C)C)cc2)N=C1c1ccc(OC)c(OC)c1 (centres undefined) |
| 162 to 164 °C | CC1=C(C(=O)OC(C)(C)C)C(c2ccccc2Br)C(C(=O)OC(C)(C)C)=C(C)N1 |
| 138 to 140 °C | CC(=O)NCCn1nnnc1S |
| 167 °C | COc1ccc(-c2nc(N)ncc2-c2ccc(=O)n(C(C)C)n2)cc1OC |
| 138 to 140 °C | FC(F)(F)Oc1ccc(-c2coc3ccc(-c4nnc(N5CCNCC5)o4)cc23)cc1 |
| 203 °C | Cc1nc2c(NCc3c(C)cccc3C)cc(C(=O)N(C)C)cc2[nH]1 |
| 127 to 129 °C | CC(C)[C@H](NS(=O)(=O)c1ccc2c(Cl)cnc(Cl)c2c1)C(=O)OC(C)(C)C |
| 96.9 °C | NNC(=O)C[C@H](O)COCc1ccccc1 |
| 81 to 86 °C | CC(C)CC(NC(=O)C(Cc1c[nH]cn1)NC(=O)C(CC(=O)NCCc1ccccc1)Cc1cccc2ccccc12)C(O)C(=O)OCc1ccccc1 (mixture of isomers) |
| 223 to 225 °C | CN(C)C(=O)c1cc2c(nc(C(F)(F)F)n2C)c2c1CCC(c1ccccc1)O2 (centres undefined) |
| 78 to 79 °C | c1ccc(Sc2ccc(Sc3ccccc3)cc2)cc1 |
| 108 °C | Cc1ccc(Br)cc1Cn1c(C(F)F)nn(C)c1=O |
| 126 to 129 °C | COc1cc([N+](=O)[O-])ccc1S(=O)(=O)Nc1ccc(C)cc1 |
| 140 to 142 °C | Cc1nc2ccc(Sc3cccc4cnccc34)cc2o1 |
| 180 to 182 °C | O=Cc1cc2cc(OCc3ccccc3)ccc2nc1Cl |
| 236 to 238 °C | COC(=O)Nc1cnc2c(NC(=O)c3c(Cl)cccc3Cl)cccc2c1-n1ccnc1 |
| 138 °C | CCOC(=NC(=O)c1ccc(Cl)c(Cl)c1)N1Cc2ccccc2-c2ccccc2C1 |
| 106 to 108 °C | O=c1oc2c(-c3ccccc3)cccc2c(OCCN2CCOCC2)c1-c1ccccc1 |

| melting point | Compound |
| --- | --- |
| 107 to 110 °C | CCN(CC)Cc1ccccc1Oc1ccc(-c2cn(C3CCOC3)c3ncnc(N)c23)cc1 (centres undefined) |
| 101 °C | COC(=O)c1cc2ccc(OC)cc2n1CCN1CCC(N)CC1 |
| 138 to 140 °C | N#Cc1ccc(-c2nc(CO)no2)cc1 |
| 177 to 179 °C | CCOC(=O)C1=C(C)NC(C)=C(C(=O)OCC)C1c1c(SC)sc2ccccc12 |
| 69 to 71 °C | COc1ccc(N)c(CCc2cc(OC)ccc2N)c1 |
| 122 °C | CS(=O)(=O)c1ccc(-c2cc(C(=O)c3cccnc3)sc2N2CCOCC2)cc1 |
| 170 to 171 °C | NC(=O)C1CCc2cc(C3CCCCCC3)c(Cl)cc21 (centres undefined) |
| 68 to 69 °C | CCOP(=O)(OCC)C(Nc1nocc1C)P(=O)(OCC)OCC |
| 80 to 93 °C | COC(=O)C=CC(CNC(=O)C(C)(Cc1c[nH]c2ccccc12)NC(=O)OC1C2CC3CC(C2)CC1C3)c1ccccc1 (centres undefined) |
| 145 to 146 °C | CNC(=O)N(OC(=O)OC)c1ccc(Cl)cc1 |
| 141 °C | O=C1OC(c2ccccc2)=CC1=Cc1cccs1 |
| 242 to 245 °C | COc1cc2nc(N3CCN(c4nc5ccccc5s4)CC3)nc(N)c2cc1OC |
| 256 °C | CCOC(=O)c1cn(C2CC2)c2nc3cc(Cl)c(F)cc3cc2c1=O |
| 220 to 226 °C | NC(=O)CN1C(=O)COc2cc(F)c([N+](=O)[O-])cc21 |
| 90 to 110 °C | CCOC(=O)c1c(C(C)C)nc2onc(C)c2c1-c1ccc(F)cc1 |
| 75 to 76 °C | Cc1ccc2c(c1)SC(c1ccc(OCCCCBr)cc1)C(=O)N2C (centres undefined) |
| 118 to 121 °C | CN1CCC(=C2c3ccccc3C=Cc3ccc(C(=O)OCn4ccnc4)cc32)CC1 |
| > 300 °C | Cn1cc(S(=O)(=O)Cl)c(=O)c2ccc(Cl)cc21 |
| 104 to 106 °C | CC1(C)Cc2c(Cl)cccc2C=[N+]1[O-] |
| 153 to 159 °C | COc1ccc(-c2cc(C(=O)NCCCCCCc3ccccc3)cc(-c3cccc(C(F)(F)F)c3)c2OCCO)cc1 |
| 60 to 70 °C | CC(COc1ccc(CC2SC(=O)NC2=O)cc1)N1CC(Cc2ccccc2)OC1=O (centres undefined) |
| 199 to 201 °C | Cc1c(NC(=O)c2ccc(-c3ccc(F)c(F)c3)cc2)ccc2cc(CN3CCCC3)cnc12 |

| Compound | melting point |
| --- | --- |
| O=C(OCC1CC1)c1ncn2c1[C@@H]1CCCN1C(=O)c1c-2ccc(Cl)c1Cl | 185 to 186 °C |
| CN1Cc2c(-c3nc(CCl)cs3)ncn2-c2cccc(Cl)c2C1=O | 277 to 279 °C |
